Measured values from PMC9937538 (Journal of Medicinal Chemistry, 2022).
≈ marks a conversion by molar mass, not a printed value. Where “and” joins values, the source holds several entries; their conditions need not be identical. Equal values may be shown once.

Key:
[1] = biological target: T1, purified recombinant human DPP IV (Homo sapiens, UniProt P27487); experiment: In vitro DPP IV activity assay (fluorogenic Gly-Pro-AMC substrate); type: biochemical; details: mean from three different assays
T1 construct: purchased Cayman Chemicals (Michigan)
Experimental: The DPP IV inhibition activities of the entire sets of compounds were carried out on purified recombinant human DPP IV using conditions previously optimized.[35]
Four independent in vitro experiments were carried out, and each of those was performed in triplicate in a white half-volume 96-well solid plate. […] Afterward, the samples were mixed and 50 μL was transferred to each plate well. Each reaction was started by adding 50 μL of the substrate solution (200 μM H-Gly-Pro-7-amido-4-methylcoumarin (AMC)) to each well and incubated at 37 °C for 30 min. […] The DPP IV enzyme and the substrate solution were provided by Cayman Chemicals (Michigan).

human cloned α1a-AR = biological target: T2, human cloned α1a-AR (Homo sapiens, UniProt P35348); experiment: α1a-AR binding assay ([3H]prazosin displacement); details: human cloned α1a-AR expressed in HEK293 cells
T2 construct: expressed in transfected cells
T2 sequence (P35348 1-466): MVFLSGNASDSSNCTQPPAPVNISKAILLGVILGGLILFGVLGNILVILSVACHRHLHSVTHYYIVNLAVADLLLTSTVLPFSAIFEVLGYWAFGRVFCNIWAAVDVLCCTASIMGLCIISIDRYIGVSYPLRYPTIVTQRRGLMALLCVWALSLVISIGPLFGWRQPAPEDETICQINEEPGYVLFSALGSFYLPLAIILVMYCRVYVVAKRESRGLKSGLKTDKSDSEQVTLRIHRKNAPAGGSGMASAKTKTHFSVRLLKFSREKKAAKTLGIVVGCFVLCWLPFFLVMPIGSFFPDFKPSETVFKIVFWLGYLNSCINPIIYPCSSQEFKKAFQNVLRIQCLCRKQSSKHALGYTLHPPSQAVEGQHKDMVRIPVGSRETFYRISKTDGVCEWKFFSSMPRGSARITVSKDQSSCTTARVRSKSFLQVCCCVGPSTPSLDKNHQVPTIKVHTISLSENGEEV
Source text: Since WB-4101 is a potent α1 antagonist, this adrenoreceptor subtype was chosen to assess the loss of adrenergic affinity.
Figure S3. […] Curves […]
from single experiments were fitted using the standard four parameter logistic equation and represent the mean ± S.E.M. of 4 observations, 2 experi-ments. X-axis: Log concentrations of competitive test compounds. Y-axis: normalized [3H]prazosin Bound/Total bound.
In the table are reported the affinity constants, expressed as pKi (-log Ki), of compounds 11, 12 and WB-4101 for human cloned α1a-AR expressed in HEK293 cells. The values represent the arithmetic mean ± S.E.M. of 4 observations, 2 experiments.
ND, not determinable; NA, not available.
Note: data generated from binding assays were analyzed using Prism 5.02 (GraphPad Software Inc., San Diego, CA) and were fitted to a parametric function to derive best estimates of the IC50 and slope factor (nH); IC50 values were then converted to binding constant Ki according to Cheng-Prus- […]
The details on the α1a-AR binding assay have been described before2.
(1 picture or pasted object on this page, not shown here)

[2] = biological target: T3, DPP IV activity expressed by nondifferentiated Caco-2 cells (Homo sapiens, UniProt P27487); type: cell-based
T3 construct: Caco-2 cells that express high levels of DPP IV on their cellular membranes; endogenous in cells; host or cells: Caco-2 cells (INSERM, Paris)
Experimental: The data are represented as the means ± standard deviation (SD) of three independent experiments, performed in triplicate. Statistical analysis was performed by one-way analysis of variance (ANOVA), followed by Tukey’s post hoc test. ns: not significant; (**), p < 0.01, (****) p < 0.0001; C: control cells.
A total of 3 × 10^4 Caco-2 cells/well were seeded in black 96-well plates with clear bottoms.

[3] = Solubility in phosphate-buffered saline (LC-MS/MS); type: physicochemical; details: pH 7.4, read-out: soluble concentration
Experimental: The solubility of compound 12 was determined in phosphate-buffered saline at a pH of 7.4 through a suitable liquid chromatography and tandem mass spectrometry (LC-MS/MS) method, as described in the Experimental Section.

[4] = Hepatic microsome stability; type: in vitro ADME; details: after 120 min of incubation
Experimental: To predict the metabolic fate as well as the susceptibility of compound 12 to phase I metabolism following the in vivo administration, it was incubated with human (Sekisui XenoTech, LLC), CD-1 mouse (BioIVT), and Sprague-Dawley (SD) rat liver microsomes (Corning), as described in the Experimental Section.

Caco-2 cells [5] = experiment: Uptake by Caco-2 cells (intrinsic fluorescence, normalized with Janus Green); type: in vitro ADME, human; details: 1.0 μM
Experimental: The ability of compound 12 to be uptaken by Caco-2 cells was assessed, exploiting its natural behavior to emit fluorescence at 313 nm after excitation at 250 nm using a fluorescent plate reader. […] Fluorescence signals emitted at 313 nm by the compound localized at the intracellular level as a function of time have been normalized for the total amount of cells stained using Janus Green (OD 595 nm); therefore, the relative fluorescence unit (RFU) 313/595 nm after 15, 30, and 60 min of incubation was calculated. The RFU 313/595 nm of the blank samples, which represents the cellular background, was subtracted from each normalized fluorescence signal. […] In particular, compound 12 is absorbed by Caco-2 cells up to 2874 ± 383.1, 4562 ± 993.2, and 6250 ± 1163RFU after 15, 30, and 60 min, respectively (Figure 7).

Caco-2 cells [6] = experiment: MTT assay; type: cell-based, human; details: 10^–8 to 10^–5 M, 48 h
Experimental: (§1) The cytotoxicity of the active compound 12 was determined. Cell viability was assessed by the quantitative colorimetric method of the MTT reduction on Caco-2 and HepG2 cells.
(§2) A total of 3 × 10^4 Caco-2 and HepG2 cells/well were seeded in 96-well plates and treated with 11 and 12 from 10^–8 to 10^–5 M or vehicle (H2O) in complete growth media for 48 h at 37 °C under a 5% CO2 atmosphere. Subsequently, the treatment solvent was aspirated and 100 μL/well of 3-(4,5-dimethylthiazol-2-yl)-2,5-diphenyltetrazolium bromide (MTT) filtered solution was added. After 2 h of incubation at 37 °C under a 5% CO2 atmosphere, 0.5 mg/mL solution was aspirated and 100 μL/well of the lysis buffer (8 mM HCl + 0.5% NP-40 in DMSO) was added. After 10 min of slow shaking, the absorbance at 575 nm was read on a Synergy H1 fluorescence plate reader (Biotek, Bad Friedrichshall, Germany).

HepG2 cells = experiment: MTT assay; type: cell-based, human; details: 10^–8 to 10^–5 M, 48 h
Experimental: as §1, §2

hCA IX = hCA IX (Homo sapiens, UniProt Q16790); experiment: CA inhibition, stopped-flow CO2 hydration assay; details: read-out: Ki CA IX; stopped-flow technique, mean from three assays
Experimental: An applied photophysics stopped-flow instrument was used for assaying the CA-catalyzed CO2 hydration activity.[37]
The uncatalyzed rates were determined in the same manner and subtracted from the total observed rates. Stock solutions of the inhibitor (0.1 mM) were prepared in distilled–deionized water, and dilutions up to 0.01 nM were done thereafter with the assay buffer. Inhibitor and enzyme solutions were preincubated together for 15 min at room temperature prior to the assay to allow for the formation of the E–I complex. The inhibition constants were obtained by nonlinear least-squares methods using PRISM 3 and the Cheng–Prusoff equation, as reported earlier, and represent the mean from at least three different determinations. All CA isoforms were recombinant proteins obtained in-house, as reported earlier.[44]−[46]

T3 sequence (P27487 whole entry): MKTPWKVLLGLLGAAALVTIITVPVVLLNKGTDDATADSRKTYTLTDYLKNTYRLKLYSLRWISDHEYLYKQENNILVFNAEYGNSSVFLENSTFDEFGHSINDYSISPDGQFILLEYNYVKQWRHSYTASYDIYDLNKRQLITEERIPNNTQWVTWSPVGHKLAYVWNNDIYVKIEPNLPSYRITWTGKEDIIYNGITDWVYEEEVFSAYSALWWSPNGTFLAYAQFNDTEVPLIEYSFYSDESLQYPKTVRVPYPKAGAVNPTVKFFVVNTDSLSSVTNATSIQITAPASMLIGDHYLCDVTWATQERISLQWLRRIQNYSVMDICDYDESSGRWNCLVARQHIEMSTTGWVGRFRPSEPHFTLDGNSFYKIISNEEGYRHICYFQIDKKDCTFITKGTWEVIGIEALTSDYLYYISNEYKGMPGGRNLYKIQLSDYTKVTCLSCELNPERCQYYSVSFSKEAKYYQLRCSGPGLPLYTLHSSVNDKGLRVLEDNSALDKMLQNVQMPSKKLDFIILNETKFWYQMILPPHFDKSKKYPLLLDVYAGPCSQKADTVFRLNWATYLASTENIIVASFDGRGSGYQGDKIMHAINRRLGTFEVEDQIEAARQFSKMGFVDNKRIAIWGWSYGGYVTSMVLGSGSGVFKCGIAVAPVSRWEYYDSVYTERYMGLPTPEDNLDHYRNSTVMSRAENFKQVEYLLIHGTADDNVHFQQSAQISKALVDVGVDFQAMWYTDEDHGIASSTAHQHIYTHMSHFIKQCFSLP
T1 sequence (P27487 whole entry): as above

## NC(CCOc1ccc(S(N)(=O)=O)cc1)C1COc2ccccc2O1 (centres unmarked) [Compound 12, 4-(3-Amino-3-(1,4-benzodioxan)propoxy)benzenesulfonamide]
[1]
  IC50: 49 ± 4.5 nM
Human cloned α1a-AR
  nH α1a-AR (slope factor): 0.97 ± 0.27
Human cloned α1a-AR; mean ± S.E.M.
  pKi α1a-AR: 6.61
[2]
  inhibition of cellular DPP IV activity vs untreated cells: 60.65 ± 4.92% and 71.86 ± 4.27%
[3]
  solubility: 224 µM (≈ 81.6 µg/mL)
[4]; human liver microsomes
  compound remaining: 72.6%
[4]; mouse liver microsomes
  compound remaining: 27.5%
[4]; rat liver microsomes
  compound remaining: 16.7%
Caco-2 cells [5]; 15 min
  intracellular fluorescence RFU 313/595 nm (uptake): 2874 ± 383.1 RFU
Caco-2 cells [5]; 30 min
  intracellular fluorescence RFU 313/595 nm (uptake): 4562 ± 993.2 RFU
Caco-2 cells [5]; 60 min
  intracellular fluorescence RFU 313/595 nm (uptake): 6250 ± 1163 RFU
Caco-2 cells [6]
  cell viability (MTT reduction): maintain their metabolic activity
HepG2 cells
  cell viability (MTT reduction): maintain their metabolic activity
hCA IX
  Ki: 133 nM
